Measured values taken from US20230219921A1, “KCNT1 INHIBITORS AND METHODS OF USE” (Praxis Precision Medicines, Inc., priority 2020, published 2023).

Target: T1, KCNT1 (KNa1.1, Slack) (Homo sapiens, UniProt Q5JUK3)
T1 construct: expressed in transfected cells; host or cells: HEK-TREX (tetracycline-inducible HEK cell line)
T1 sequence (Q5JUK3 1-1230): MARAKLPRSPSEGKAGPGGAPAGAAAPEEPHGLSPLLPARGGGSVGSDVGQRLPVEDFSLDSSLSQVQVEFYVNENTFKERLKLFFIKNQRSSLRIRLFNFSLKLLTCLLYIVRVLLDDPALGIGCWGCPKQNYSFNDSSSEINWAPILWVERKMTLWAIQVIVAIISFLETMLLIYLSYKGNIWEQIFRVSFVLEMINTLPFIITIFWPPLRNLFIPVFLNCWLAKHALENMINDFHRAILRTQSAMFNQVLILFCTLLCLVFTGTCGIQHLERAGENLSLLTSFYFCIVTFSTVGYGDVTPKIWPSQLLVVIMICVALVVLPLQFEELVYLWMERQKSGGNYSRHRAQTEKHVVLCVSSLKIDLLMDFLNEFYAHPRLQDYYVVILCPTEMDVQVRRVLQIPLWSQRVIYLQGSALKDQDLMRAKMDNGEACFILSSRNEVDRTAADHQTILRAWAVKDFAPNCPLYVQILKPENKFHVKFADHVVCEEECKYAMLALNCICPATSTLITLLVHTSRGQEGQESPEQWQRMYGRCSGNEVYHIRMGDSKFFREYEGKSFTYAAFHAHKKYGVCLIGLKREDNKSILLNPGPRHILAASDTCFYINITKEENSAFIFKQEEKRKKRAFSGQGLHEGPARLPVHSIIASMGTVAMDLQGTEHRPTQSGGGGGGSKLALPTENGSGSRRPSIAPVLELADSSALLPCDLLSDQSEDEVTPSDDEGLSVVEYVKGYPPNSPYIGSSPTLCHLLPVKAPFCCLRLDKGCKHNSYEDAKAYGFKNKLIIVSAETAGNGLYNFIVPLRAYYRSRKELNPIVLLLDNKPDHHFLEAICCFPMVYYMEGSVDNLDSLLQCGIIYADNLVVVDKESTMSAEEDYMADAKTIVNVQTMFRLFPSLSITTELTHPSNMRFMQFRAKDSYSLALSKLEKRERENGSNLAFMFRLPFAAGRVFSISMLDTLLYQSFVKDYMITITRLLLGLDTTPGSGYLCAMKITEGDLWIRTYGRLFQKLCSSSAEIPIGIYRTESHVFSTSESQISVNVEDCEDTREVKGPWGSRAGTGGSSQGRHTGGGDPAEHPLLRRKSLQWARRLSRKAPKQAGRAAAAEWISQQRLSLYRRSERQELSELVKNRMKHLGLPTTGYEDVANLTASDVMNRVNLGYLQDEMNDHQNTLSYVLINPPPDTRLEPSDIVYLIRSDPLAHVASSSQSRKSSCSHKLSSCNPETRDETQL
Assay: KCNT1 patch clamp assay (SyncroPatch 384PE automated patch clamp)
Format: cell-based
Settings: tetracycline inducible cell line (HEK-TREX); perforated patch mode; step from -80 mV to 0 mV; room temperature; read-out: KCNT1-WT IC50
Procedure: Inhibition of KCNT1 (KNa1.1, Slack) was evaluated using a tetracycline inducible cell line (HEK-TREX). Currents were recorded using the SyncroPatch 384PE automated, patch clamp system. Pulse generation and data collection were performed with PatchController384 V1.3.0 and DataController384 V1.2.1 (Nanion Technologies). The access resistance and apparent membrane capacitance were estimated using built-in protocols. Current were recorded in perforated patch mode (10 μM escin) from a population of cells. The cells were lifted, triturated, and resuspended at 800,000 cells/ml. The cells were allowed to recover in the cell hotel prior to experimentation. Currents were recorded at room temperature. The external solution contained the following (in mM): NaCl 105, NMDG 40, KCl 4, MgCl2 1, CaCl2 5 and HEPES 10 (pH=7.4, Osmolarity ˜300 mOsm). The extracellular solution was used as the wash, reference and compound delivery solution. The internal solution contained the following (in mM): NaCl 70, KF 70, KCl 10, EGTA 5, HEPES 5 and Escin 0.01 (pH=7.2, Osmolarity ˜295 mOsm). Escin is made at a 5 mM stock in water, aliquoted, and stored at −20° C. The compound plate was created at 2× concentrated in the extracellular solution. The compound was diluted to 1:2 when added to the recording well. The amount of DMSO in the extracellular solution was held constant at the level used for the highest tested concentration. A holding potential of −80 mV with a 100 ms step to 0 mV was used. Mean current was measured during the step to 0 mV. […] The average mean current from 3 sweeps was calculated and the % inhibition of each compound was calculated. The % Inhibition as a function of the compound concentration was fit with a Hill equation to derive IC50, slope, min and max parameters. If KCNT1 inhibition was less than 50% at the highest tested concentration or if an IC50 could not be calculated, then a percent inhibition was reported in place of the IC50.
In this table, “A” indicates IC50 of less than or equal to 1 μM; “B” indicates inhibition of between 1 μM to 20 μM; and “C” indicates inhibition of greater than or equal to 20 μM.

SMILES	IC50
CC(C)(C)c1ccc(CNC(=O)c2ccc(S(C)(=O)=O)s2)cc1 [Compound 32, N-(4-(tert-butyl)benzyl)-5-(methylsulfonyl)thiophene-2-carboxamide]	≤ 1 µM
CS(=O)(=O)c1ccc(C(=O)NCc2ccc(C(F)(F)F)cc2)s1 [Compound 33, 5-(methylsulfonyl)-N-(4-(trifluoromethyl)benzyl)thiophene-2-carboxamide]	≤ 1 µM
CS(=O)(=O)c1ccc(C(=O)NCc2ccc(OCC(F)(F)F)cc2)s1 [Compound 34, 5-(methylsulfonyl)-N-(4-(2,2,2-trifluoroethoxy)benzyl)thiophene-2-carboxamide]	1 to 20 µM
CNS(=O)(=O)c1ccc(C(=O)NCc2ccc(OCC(F)(F)F)cc2)s1 [Compound 35, 5-(N-methylsulfamoyl)-N-(4-(2,2,2-trifluoroethoxy)benzyl)thiophene-2-carboxamide]	1 to 20 µM
CNS(=O)(=O)c1ccc(C(=O)NCc2ccc(C3(C(F)(F)F)CC3)cc2)s1 [Compound 36, 5-(N-methylsulfamoyl)-N-(4-(1-(trifluoromethyl)cyclopropyl)benzyl)thiophene-2-carboxamide]	≤ 1 µM
CS(=O)(=O)c1ccc(C(=O)NCc2ccc(C3(C(F)(F)F)CC3)cc2)s1 [Compound 37, 5-(methylsulfonyl)-N-(4-(1-(trifluoromethyl)cyclopropyl)benzyl)thiophene-2-carboxamide]	≤ 1 µM
CNS(=O)(=O)c1ccc(C(=O)NCc2ccc(C(C)(C)C#N)cc2)s1 [Compound 38, N-(4-(2-cyanopropan-2-yl)benzyl)-5-(N-methylsulfamoyl)thiophene-2-carboxamide]	1 to 20 µM
CC(C)(C#N)c1ccc(CNC(=O)c2ccc(S(C)(=O)=O)s2)cc1 [Compound 39, N-(4-(2-cyanopropan-2-yl)benzyl)-5-(methylsulfonyl)thiophene-2-carboxamide]	1 to 20 µM
CNS(=O)(=O)c1ccc(C(=O)NCc2ccc(NC(C)C)cc2)s1 [Compound 40, N-(4-(isopropylamino)benzyl)-5-(N-methylsulfamoyl)thiophene-2-carboxamide]	≥ 20 µM
CC(C)Nc1ccc(CNC(=O)c2ccc(S(C)(=O)=O)s2)cc1 [Compound 41, N-(4-(isopropylamino)benzyl)-5-(methylsulfonyl)thiophene-2-carboxamide]	≥ 20 µM
CS(=O)(=O)c1ccc(C(=O)NCc2ccc(C(F)(F)F)cc2F)s1 [Compound 42, N-(2-fluoro-4-(trifluoromethyl)benzyl)-5-(methylsulfonyl)thiophene-2-carboxamide]	≤ 1 µM
CNS(=O)(=O)c1ccc(C(=O)NCc2ccc(C(F)(F)F)cc2F)s1 [Compound 43, N-(2-fluoro-4-(trifluoromethyl)benzyl)-5-(N-methylsulfamoyl)thiophene-2-carboxamide]	≤ 1 µM
Cc1cc(C(F)(F)F)ccc1CNC(=O)c1ccc(S(C)(=O)=O)s1 [Compound 44, N-(2-methyl-4-(trifluoromethyl)benzyl)-5-(methylsulfonyl)thiophene-2-carboxamide]	≤ 1 µM
CNS(=O)(=O)c1ccc(C(=O)NCc2ccc(C(F)(F)F)cc2C)s1 [Compound 45, N-(2-methyl-4-(trifluoromethyl)benzyl)-5-(N-methylsulfamoyl)thiophene-2-carboxamide]	≤ 1 µM
CS(=O)(=O)c1ccc(C(=O)NCc2ccc(C(F)(F)F)nc2)s1 [Compound 46, 5-(methylsulfonyl)-N-((6-(trifluoromethyl)pyridin-3-yl)methyl)thiophene-2-carboxamide]	1 to 20 µM
O=C(NCc1ccc(C(F)(F)F)cc1)c1ccc(S(=O)(=O)C2CC2)s1 [Compound 47, 5-(cyclopropylsulfonyl)-N-(4-(trifluoromethyl)benzyl)thiophene-2-carboxamide]	≤ 1 µM
CS(=O)(=O)c1ccc(C(=O)NCc2ccc(C(F)(F)F)cn2)s1 [Compound 48, 5-(methylsulfonyl)-N-((5-(trifluoromethyl)pyridin-2-yl)methyl)thiophene-2-carboxamide]	1 to 20 µM
CCS(=O)(=O)c1ccc(C(=O)NCc2ccc(C(F)(F)F)cc2)s1 [Compound 49, 5-(ethylsulfonyl)-N-(4-(trifluoromethyl)benzyl)thiophene-2-carboxamide]	≤ 1 µM
CC(C)S(=O)(=O)c1ccc(C(=O)NCc2ccc(C(F)(F)F)cc2)s1 [Compound 50, 5-(isopropylsulfonyl)-N-(4-(trifluoromethyl)benzyl)thiophene-2-carboxamide]	≤ 1 µM
CS(=O)(=O)c1ccc(C(=O)NCc2ccc(C(F)F)cc2)s1 [Compound 51, N-(4-(difluoromethyl)benzyl)-5-(methylsulfonyl)thiophene-2-carboxamide]	≤ 1 µM
COCCS(=O)(=O)c1ccc(C(=O)NCc2ccc(C(F)(F)F)cc2)s1 [Compound 52, 5-((2-methoxyethyl)sulfonyl)-N-(4-(trifluoromethyl)benzyl)thiophene-2-carboxamide]	≤ 1 µM
Cc1cc(C(F)F)ccc1CNC(=O)c1ccc(S(C)(=O)=O)s1 [Compound 53, N-(4-(difluoromethyl)-2-methylbenzyl)-5-(methylsulfonyl)thiophene-2-carboxamide]	≤ 1 µM
Cc1cc(C(F)(F)F)ncc1CNC(=O)c1ccc(S(C)(=O)=O)s1 [Compound 54, N-((4-methyl-6-(trifluoromethyl)pyridin-3-yl)methyl)-5-(methylsulfonyl)thiophene-2-carboxamide]	1 to 20 µM
